Source: US20100221763A1, “Specific Acceptors for Transferases to Saccharides and Method for Obtaining and Using Same” (Health Research, Inc, priority 2005, published 2010)

Tests used:
[1] = target: T1, Rat recombinant α2,3(O)ST (Rattus norvegicus, UniProt Q11205); test: Sialyltransferase assay with cloned α2,3(O)ST; assay type: biochemical; details: for Km / Vmax: CMP-NeuAc 150 μM, Lineweaver-Burke plot
T1 construct: purchased Calbiochem
T1 sequence (Q11205 1-350): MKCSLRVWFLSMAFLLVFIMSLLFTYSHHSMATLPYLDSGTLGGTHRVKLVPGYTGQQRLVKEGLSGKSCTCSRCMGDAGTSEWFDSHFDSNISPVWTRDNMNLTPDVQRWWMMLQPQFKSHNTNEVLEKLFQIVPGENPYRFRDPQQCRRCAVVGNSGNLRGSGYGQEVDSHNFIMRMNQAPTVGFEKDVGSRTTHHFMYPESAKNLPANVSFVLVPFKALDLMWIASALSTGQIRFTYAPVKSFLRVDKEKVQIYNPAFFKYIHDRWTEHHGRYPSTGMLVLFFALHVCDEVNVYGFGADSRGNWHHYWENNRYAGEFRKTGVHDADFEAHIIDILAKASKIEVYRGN
Experimental: (§1) Rat recombinant α2,3(O)ST, α2,3(N)ST and α2,6(N)ST were purchased from Calbiochem and stored at either −20° C. or −70° C. as recommended by the supplier. […] 10 μl aliquots of the diluted enzymes were used in the assays run in duplicate.
(§2) The incubation mixtures run in duplicate contained 0.1M NaCacodylate buffer pH6.0, the acceptor (typically at 7.5 mM, or as indicated in some experiments), CMP-[9 ^3H] NeuAc (typically 0.2 μci; 20 μci/nmol or as indicated in some experiments) and the enzyme in a total volume of 20 μl. The control incubation mixtures contained everything except the acceptor. Incubation was carried out for 2 h at 37° C. The enzymatic transfer of [9-^3H] NeuAc to a typical acceptor was linear for 2 h and less than 30% CMP-[9-^3H] NeuAc was utilized. Chromatography, using either Dowex-1-Formate, Sep-Pak C18 or Biogel P2, was applied to separate radioactive product from un-reacted [9-^3H] NeuAc as described below.
(§3) The radioactive products from neutral allyl and methyl glycosides as well as non-glycosides were measured by fractionation on Dowex-1-Formate (Bio-Rad: AG-1X8; 200-400 mesh; format form) as follows: The incubation mixture was diluted with 1.0 ml water and passed through AG-1-formate column (1.0 ml bed volume in a Pasteur pipet which had been washed with 5 ml of 2M Formic acid followed by 10 ml water). The column was washed twice with 1.0 ml water after the entry of the sample and then eluted with 3.0 ml of 0.1M NaCl. The radioactivity present in water and 0.1M NaCl eluates were measured separately using 3a70 scintillation cocktail (Research Products International, Mount Prospect, Ill.) and a Beckman LS6500 scintillation counter. The CPM values were corrected by subtracting the blank CPM. Any radioactivity present in the water eluate (as noticed in the case of some methylglycosides) was added to the corresponding CPM value of 0.1M NaCl eluate. The radioactive products from sulfated and/or sialylated methylglycosides were also measured by the above procedure, only the elution of the AG-1-Formate column was continued further with 3.0 ml of 0.2M NaCl for achieving a complete elution of the radioactive product, a correction being made as before by subtracting the corresponding blank values.
(§4) The radioactive products from benzylglycosides and monosialylated benzylglycosides were measured by hydrophobic chromatography on Sep-Pak C18 cartridge (Waters, Milford, Mass.) and eluting the product with 3.0 ml methanol (30). The radioactivity was determined by liquid scintillation as above.
(§5) For such work, a Biogel P2 column (Fine Mesh; 1.0×116.0 cm) was used with 0.1M pyridine acetate pH5.4 as the eluent at room temperature. The effluent fractions were monitored for radioactivity and the first peak containing radioactivity was collected, lyophilized to dryness, dissolved in 200 μl of water and stored frozen at −20° C. for thin layer chromatography (TLC) and other experimentation.

[2] = target: T2, Rat recombinant α2,3(N)ST (Rattus norvegicus, UniProt Q02734); test: Sialyltransferase assay with cloned α2,3(N)ST; assay type: biochemical; details: Table I; acceptor 7.5 mM; 100% = 29520 CPM (Galβ1,4GlcNAcβ-O—Al)
T2 construct: purchased Calbiochem
T2 sequence (Q02734 29-374 limits assumed): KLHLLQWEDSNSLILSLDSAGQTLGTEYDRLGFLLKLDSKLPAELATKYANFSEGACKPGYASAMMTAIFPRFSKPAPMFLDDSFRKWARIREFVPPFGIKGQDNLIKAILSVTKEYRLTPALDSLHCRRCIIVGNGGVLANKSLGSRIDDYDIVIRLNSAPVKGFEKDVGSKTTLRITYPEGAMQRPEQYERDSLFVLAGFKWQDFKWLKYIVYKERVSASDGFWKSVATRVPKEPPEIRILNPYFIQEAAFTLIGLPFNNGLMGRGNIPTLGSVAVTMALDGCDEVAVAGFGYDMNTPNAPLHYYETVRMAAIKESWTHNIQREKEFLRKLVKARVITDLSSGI
Experimental: as §1, §2, §3, §4, §5

LNCaP α2,3(O)ST = test: Sialyltransferase assay with LNCaP cell extract; assay type: biochemical, human
Experimental: The prostate carcinoma cell line, LNCaP, was grown in RPMI 1640 supplemented with 10% fetal bovine serum and antibiotics (penicillin, streptomycin and amphotericin B) under conditions recommended by American Type Culture Collection (Manassas, Va.). The cells were homogenized with 0.1M Tris-Maleate pH6.3 containing 2% Triton X-100 using a Dounce all glass hand-operated homogenizer. The homogenate was centrifuged at 16,000 g for 1 h at 4° C. Protein concentration in supernatant was measured using the BCA assay (Pierce Biotech, Inc., Rockford, Ill.), with BSA as the standard. The supernatant was adjusted to 5 mg protein/ml by adding the necessary amount of extraction buffer and then stored frozen at −20° C. until use. 10 μl aliquot of this extract was used in assays run in duplicate.
as §2, §3, §4, §5

[3] = Table IV, compound 7.5 mM, relative to Galβ1,3(GlcNAcβ1,6)GalNAcα-O—Al
[4] = Table I, acceptor 7.5 mM, 100% = 40560 CPM (3-O-MeGalβ1,4GlcNAcβ1,6(Galβ1,3)GalNAcα-O-Bn)
[5] = Table I, acceptor 7.5 mM, 100% = 30930 CPM (3-O-MeGalβ1,4GlcNAcβ1,6(Galβ1,3)GalNAcα-O-Bn)
[6] = Table II, acceptor 0.75 mM, relative to Galβ1,3GalNAcα-O-Bn
[7] = Table II, acceptor 7.5 mM, relative to Galβ1,3GalNAcα-O-Bn

| Structure (SMILES) | Km [1] [µM] | Vmax [1] [pmol/h] | Sialyltransferase activity (%) Cloned α2,3(O)ST [1, 6] | Sialyltransferase activity (%) LNCaP α2,3(O)ST (LNCaP α2,3(O)ST; [6]) [%] | other results |
| --- | --- | --- | --- | --- | --- |
| CC(=O)NC1C(OCC2OC(OCc3ccccc3)C(NC(C)=O)C(OC3OC(CO)C(O)C(OS(=O)(=O)O)C3O)C2O)OC(CO)C(O)C1O (centres unmarked) [3-O-SulfoGalβ1,3(GlcNAcβ1,6)GalNAcα-O-Bn, 3-O-SulfoGalβ1,3(GlcNAcβ1,6) GalNAcα-O-Bn] |  |  |  |  | Sialyltransferase activity (%) Cloned α2,3(O)ST [1, 3]: 54.7% |
| CO[C@H]1O[C@H](CO)[C@H](O)[C@H](O[C@@H]2O[C@H](CO)[C@H](O)[C@H](O[C@@H]3O[C@H](C)[C@H](O)[C@H](OS(=O)(=O)O)[C@H]3O)[C@H]2NC(C)=O)[C@H]1O [3-O-SulfoD-Fucβ1,3GalNAcβ1,3Galα-O-Me] | 2000 | 624 |  |  |  |
| COC1OC(COC2OC(COS(=O)(=O)O)C(OC3OC(CO)C(O)C(OC4(C(=O)O)CC(O)C(NC(C)=O)C(C(O)C(O)CO)O4)C3O)C(OC3OC(C)C(O)C(O)C3O)C2NC(C)=O)C(O)C(OC2OC(CO)C(O)C(O)C2O)C1NC(C)=O (centres unmarked) [NeuAcα2,3Galβ1,4(6-O-Sulfo)(Fucα1,3)GlcNAcβ1,6(Galβ1,3)GalNAcα-O-Me] |  |  |  |  | Sialyltransferase activity (%) Cloned α2,3(O)ST [1, 4]: 7.4% |
| CC(=O)N[C@H]1[C@H](OC[C@H]2O[C@H](OCc3ccccc3)[C@H](NC(C)=O)[C@@H](O[C@@H]3O[C@H](CO)[C@H](O)[C@H](O[C@@]4(C(=O)O)C[C@H](O)[C@@H](NC(C)=O)[C@H]([C@H](O)[C@H](O)CO)O4)[C@H]3O)[C@H]2O)O[C@H](CO)[C@@H](O[C@@H]2O[C@H](CO)[C@H](O)[C@H](O)[C@H]2O)[C@@H]1O[C@@H]1O[C@@H](C)[C@@H](O)[C@@H](O)[C@@H]1O [Galβ1,4(Fucα1,3)GlcNAcβ1,6(NeuAcα2,3Galβ1,3)GalNAcα-O-Bn] |  |  |  |  | Sialyltransferase activity (%) Cloned α2,3(N)ST [2]: 27.1% |
| COC1OC(COC2OC(CO)C(OC3OC(CO)C(O)C(OC4(C(=O)O)CC(O)C(NC(C)=O)C(C(O)C(O)CO)O4)C3O)C(O)C2NC(C)=O)C(O)C(OC2OC(CO)C(O)C(O)C2O)C1NC(C)=O (centres unmarked) [NeuAcα2,3Galβ1,4GlcNAcβ1,6(Galβ1,3)GalNAcα-O-Me] |  |  |  |  | Sialyltransferase activity (%) Cloned α2,3(O)ST [1, 4]: 35.2%; Sialyltransferase activity (%) LNCaP α2,3(O)ST (LNCaP α2,3(O)ST; [5]): 5.1% |
| CC(=O)N[C@H]1[C@@H](OCc2ccccc2)O[C@H](CO)[C@H](O)[C@@H]1O[C@@H]1O[C@H](CO)[C@H](F)[C@H](O)[C@H]1O [4-F-Galβ1,3GalNAcα-O-Bn] | 250 | 1442 | 104.6^10% | 44.8 | Sialyltransferase activity (%) Cloned α2,3(O)ST [1, 7]: 102.3^10%; Sialyltransferase activity (%) LNCaP α2,3(O)ST (LNCaP α2,3(O)ST; [7]): 105.1% |
| CO[C@@H]1[C@H](O)[C@@H](O)[C@H](O[C@H]2[C@@H](O)[C@@H](CO)O[C@H](OCc3ccccc3)[C@@H]2NC(C)=O)O[C@@H]1CO [4-O-MeGalβ1,3GalNAcα-O-Bn] | 130 | 1250 | 104.6^9% | 141.5 | Sialyltransferase activity (%) Cloned α2,3(O)ST [1, 7]: 105.0^9%; Sialyltransferase activity (%) LNCaP α2,3(O)ST (LNCaP α2,3(O)ST; [7]): 188.7% |
| CO[C@H]1[C@@H](O)[C@@H](CO)O[C@@H](O[C@H]2[C@@H](O)[C@@H](CO)O[C@H](OCc3ccccc3)[C@@H]2NC(C)=O)[C@@H]1O [3-O-MeGalβ1,3GalNAcα-O-Bn] |  |  | 70.4% | 2.6 | Sialyltransferase activity (%) Cloned α2,3(O)ST [1, 7]: 101.8%; Sialyltransferase activity (%) LNCaP α2,3(O)ST (LNCaP α2,3(O)ST; [7]): 15.5% |
| COC[C@H]1O[C@H](OCc2ccccc2)[C@H](NC(C)=O)[C@@H](O[C@@H]2O[C@H](CO)[C@H](O)[C@H](OC)[C@H]2O)[C@H]1O [3-O-MeGalβ1,3(6-O-Me)GalNAcα-O-Bn] |  |  | 55.9% | 1.1 |  |
| CO[C@H]1[C@@H](O)[C@@H](CO)O[C@@H](O[C@H]2[C@@H](O)[C@@H](CO[C@@H]3O[C@H](CO)[C@@H](O)[C@H](O)[C@H]3NC(C)=O)O[C@H](OCc3ccccc3)[C@@H]2NC(C)=O)[C@@H]1O [3-O-MeGalβ1,3(GlcNAcβ1,6)GalNAcα-O-Bn, 3-O-MeGalβ1,3(GlcNAcβ1,6) GalNAcα-O-Bn] |  |  |  |  | Sialyltransferase activity (%) Cloned α2,3(O)ST [1, 3]: 24.7% |
| COC1OC(CO)C(O)C(OC2OC(CO)C(O)C(OC3OC(CO)C(O)C(OS(=O)(=O)O)C3O)C2NC(C)=O)C1O (centres unmarked) [3-O-SulfoGalβ1,3GalNAcβ1,3Galα-O-Me] | 1250 | 416 |  |  |  |
| CC(=O)NC1C(OC2C(O)C(CO)OC(OC3C(CO)OC(OCc4ccccc4)C(NC(C)=O)C3O)C2O)OC(CO)C(OC2OC(CO)C(O)C(O)C2O)C1O (centres unmarked) [Galβ1,4GlcNAcβ1,3Galβ1,4GlcNAcβ-O-Bn] |  |  |  |  | Sialyltransferase activity (%) Cloned α2,3(O)ST [1, 4]: 8.7% |
| COC[C@H]1O[C@H](OCc2ccccc2)[C@H](NC(C)=O)[C@@H](O[C@@H]2O[C@H](CO)[C@H](O)[C@H](O)[C@H]2O)[C@H]1O [Galβ1,3(6-O-Me)GalNAcα-O-Bn] |  |  | 107.6^11% | 119.2 | Sialyltransferase activity (%) Cloned α2,3(O)ST [1, 7]: 107.3^11%; Sialyltransferase activity (%) LNCaP α2,3(O)ST (LNCaP α2,3(O)ST; [7]): 189.4% |
| CO[C@H]1O[C@H](CO[C@@H]2O[C@H](CO)[C@@H](O[C@@H]3O[C@H](CO)[C@H](O)[C@H](O)[C@H]3NC(C)=O)[C@H](O[C@@H]3O[C@@H](C)[C@@H](O)[C@@H](O)[C@@H]3O)[C@H]2NC(C)=O)[C@H](O)[C@H](O[C@@H]2O[C@H](CO)[C@H](O)[C@H](O)[C@H]2O)[C@H]1NC(C)=O [GalNAcβ1,4(Fucα1,3)GlcNAcβ1,6(Galβ1,3)GalNAcα-O-Me] |  |  |  |  | Sialyltransferase activity (%) Cloned α2,3(O)ST [1, 4]: 134.9%; Sialyltransferase activity (%) LNCaP α2,3(O)ST (LNCaP α2,3(O)ST; [5]): 21.1% |
| CC(=O)N[C@H]1[C@H](OC[C@H]2O[C@H](OCc3ccccc3)[C@H](NC(C)=O)[C@@H](O[C@@H]3O[C@H](CO)[C@H](O)[C@H](O)[C@H]3O[C@@H]3O[C@@H](C)[C@@H](O)[C@@H](O)[C@@H]3O)[C@H]2O)O[C@H](CO)[C@@H](O)[C@@H]1O [Fucα1,2Galβ1,3(GlcNAcβ1,6)GalNAcα-O-Bn] | 1820 | 197 |  |  | Sialyltransferase activity (%) Cloned α2,3(O)ST [1, 3]: 45.4% |
